Reference: BindingDB's records for doi:10.1016/j.bmcl.2009.12.085 (Bristol-Myers Squibb Pharmaceutical Research and Development, 2010)

Biological target: Potassium voltage-gated channel subfamily A member 5 (Homo sapiens, UniProt P22460)
Test: Inhibition of human Kv1.5 channel expressed in mouse L929 cells

Potassium voltage-gated channel subfamily A member 5, sequence (P22460 whole entry): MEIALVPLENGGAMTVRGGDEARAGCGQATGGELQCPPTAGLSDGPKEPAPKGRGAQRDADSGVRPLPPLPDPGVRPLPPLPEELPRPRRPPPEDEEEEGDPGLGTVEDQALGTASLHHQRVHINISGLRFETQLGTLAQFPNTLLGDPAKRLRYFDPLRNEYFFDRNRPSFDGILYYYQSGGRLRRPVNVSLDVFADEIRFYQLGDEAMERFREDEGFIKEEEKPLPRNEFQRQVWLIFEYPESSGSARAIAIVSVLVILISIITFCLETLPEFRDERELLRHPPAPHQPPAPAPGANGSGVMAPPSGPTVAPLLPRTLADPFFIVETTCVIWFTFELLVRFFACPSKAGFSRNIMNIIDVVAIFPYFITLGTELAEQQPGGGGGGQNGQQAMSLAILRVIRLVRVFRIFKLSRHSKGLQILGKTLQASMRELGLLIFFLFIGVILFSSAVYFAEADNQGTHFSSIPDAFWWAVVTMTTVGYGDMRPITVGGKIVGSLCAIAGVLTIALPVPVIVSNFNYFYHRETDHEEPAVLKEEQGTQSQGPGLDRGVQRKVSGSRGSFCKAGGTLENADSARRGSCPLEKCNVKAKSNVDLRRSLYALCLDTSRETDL

Row | Compound | IC50
1 | CC1=Nc2ccnn2C(c2ccc(Cl)c(Cl)c2)C1C(=O)N1CCC[C@H]1c1n[nH]c(=O)n1C (stereo partly drawn) [3-((2S)-1-(7-(3,4-dichlorophenyl)-5-methyl-4,7-dihydropyrazolo[1,5-a]pyrimidine-6-carbonyl)pyrrolidin-2-yl)-4-methyl-1H-1,2,4-triazol-5(4H)-one] | > 1000 nM
2 | COC(=O)[C@@H]1CCCN1C(=O)C1C(C)=Nc2ccnn2C1c1ccc(Cl)c(Cl)c1 (stereo partly drawn) [(2S)-methyl 1-(7-(3,4-dichlorophenyl)-5-methyl-4,7-dihydropyrazolo[1,5-a]pyrimidine-6-carbonyl)pyrrolidine-2-carboxylate] | 150 nM
3 | CC1=Nc2ccnn2C(c2ccc(Cl)c(Cl)c2)C1C(=O)N1CCCC1c1ccc(F)cc1 (centres undefined) [(7-(3,4-dichlorophenyl)-5-methyl-4,7-dihydropyrazolo[1,5-a]pyrimidin-6-yl)(2-(4-fluorophenyl)pyrrolidin-1-yl)methanone] | 70 nM
4 | CC1=Nc2ccnn2C(c2ccc(Cl)c(Cl)c2)C1C(=O)N1CCCC1c1ccccn1 (centres undefined) [(7-(3,4-dichlorophenyl)-5-methyl-4,7-dihydropyrazolo[1,5-a]pyrimidin-6-yl)(2-(pyridin-2-yl)pyrrolidin-1-yl)methanone] | 660 nM
5 | CC1=Nc2ccnn2C(c2ccc(Cl)c(Cl)c2)C1C(=O)N1CCCC1c1cccnc1 (centres undefined) [(7-(3,4-dichlorophenyl)-5-methyl-4,7-dihydropyrazolo[1,5-a]pyrimidin-6-yl)(2-(pyridin-3-yl)pyrrolidin-1-yl)methanone] | > 1000 nM
6 | CC1=Nc2ccnn2C(c2ccc(Cl)c(Cl)c2)C1C(=O)N1CCCC1c1ccccc1 (centres undefined) [(7-(3,4-dichlorophenyl)-5-methyl-4,7-dihydropyrazolo[1,5-a]pyrimidin-6-yl)(2-phenylpyrrolidin-1-yl)methanone] | 150 nM
7 | CC1=Nc2ccnn2C(c2ccc(Cl)c(Cl)c2)C1C(=O)N1CCC[C@H]1c1nnn[nH]1 (stereo partly drawn) [((S)-2-(1H-tetrazol-5-yl)pyrrolidin-1-yl)(7-(3,4-dichlorophenyl)-5-methyl-4,7-dihydropyrazolo[1,5-a]pyrimidin-6-yl)methanone] | > 1000 nM
8 | CC1=Nc2ccnn2C(c2ccc(Cl)c(Cl)c2)C1C(=O)N1CCC[C@H]1c1nnc[nH]1 (stereo partly drawn) [((S)-2-(4H-1,2,4-triazol-3-yl)pyrrolidin-1-yl)(7-(3,4-dichlorophenyl)-5-methyl-4,7-dihydropyrazolo[1,5-a]pyrimidin-6-yl)methanone] | > 1000 nM
9 | CC1=Nc2ccnn2C(c2ccc(Cl)c(Cl)c2)C1C(=O)N1CCC[C@H]1c1nnc(N)s1 (stereo partly drawn) [((S)-2-(5-amino-1,3,4-thiadiazol-2-yl)pyrrolidin-1-yl)(7-(3,4-dichlorophenyl)-5-methyl-4,7-dihydropyrazolo[1,5-a]pyrimidin-6-yl)methanone] | > 1000 nM
